Measurements reported in US20250346585A1 (Alexion Pharmaceuticals, Inc., priority 2022, published 2025).
Structures can show the parent of a compound that is named as a salt.

target: Human complement C1s enzyme (Homo sapiens (Human), UniProt P09871); assay: Human C1s enzyme assay; assay type: biochemical; settings: Human C1s enzyme assay of Example 3; read-out: IC50 (Stars)
Method in brief: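 IC50 derived by nonlinear regression of rate versus concentration, with rate taken from A405 kinetics (30 s intervals, 30 min) after adding 100 μM each Z-L-Lys-SBzl and DTNB. C1s from human serum, 1.16 nM, exposed to compound for 5 min at RT beforehand; buffer 50 mM Tris, 1 M NaCl, pH 7.5.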

Chain of Human complement C1s enzyme (P09871 438-688 limits assumed): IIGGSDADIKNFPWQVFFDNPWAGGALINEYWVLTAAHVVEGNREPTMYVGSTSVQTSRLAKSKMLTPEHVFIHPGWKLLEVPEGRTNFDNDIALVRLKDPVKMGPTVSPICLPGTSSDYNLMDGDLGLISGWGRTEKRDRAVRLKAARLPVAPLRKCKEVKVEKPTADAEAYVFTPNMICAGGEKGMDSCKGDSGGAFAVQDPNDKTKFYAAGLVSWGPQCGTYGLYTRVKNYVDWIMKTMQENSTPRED
Chain of Human complement C1s enzyme (P09871 16-437 partner limits assumed): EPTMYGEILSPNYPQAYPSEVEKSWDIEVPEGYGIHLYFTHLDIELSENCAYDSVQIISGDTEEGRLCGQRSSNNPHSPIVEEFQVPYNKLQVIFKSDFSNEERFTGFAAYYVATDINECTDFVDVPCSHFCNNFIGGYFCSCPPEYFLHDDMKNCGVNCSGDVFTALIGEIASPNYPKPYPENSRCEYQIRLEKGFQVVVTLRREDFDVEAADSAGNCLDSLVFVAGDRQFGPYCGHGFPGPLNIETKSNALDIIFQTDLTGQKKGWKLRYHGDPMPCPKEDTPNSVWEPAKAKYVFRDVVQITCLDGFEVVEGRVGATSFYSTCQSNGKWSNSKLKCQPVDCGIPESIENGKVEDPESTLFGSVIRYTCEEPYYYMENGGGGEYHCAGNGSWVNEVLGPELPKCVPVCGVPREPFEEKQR

Compound | IC50 [µM]
C[C@@H](NC(=O)[C@@H]1CC2(CN1C(=O)CNC(=O)c1ccc3c(c1)-c1ccccc1C3(F)F)OCCO2)c1ccc(-c2ncc[nH]2)s1 [Compound 135, (S)—N—((R)-1-(5-(1H-imidazol-2-yl)thiophen-2-yl)ethyl)-7-((9,9-difluoro-9H-fluorene-3-carbonyl)glycyl)-1,4-dioxa-7-azaspiro[4.4]nonane-8-carboxamide] | > 1
N=C(N)c1csc(CNC(=O)[C@@H]2CC3(CN2C(=O)CNC(=O)c2ccc(-c4cc5ccccc5s4)cc2)OCCO3)c1 [Compound 145] | < 0.1
C[C@@H](NC(=O)[C@@H]1CC2(CN1C(=O)CNC(=O)c1ccc3cc4ccccc4cc3c1)OCCO2)c1cc(C(=N)N)cs1 [Compound 78, (S)-7-((anthracene-2-carbonyl)glycyl)-N—((R)-1-(4-carbamimidoylthiophen-2-yl)ethyl)-1,4-dioxa-7-azaspiro[4.4]nonane-8-carboxamide] | < 0.1
C[C@@H](NC(=O)[C@@H]1C[C@@H](OC(F)F)CN1C(=O)CNC(=O)c1ccc(Oc2ccc(C3CC3)cc2)cc1)c1cc(C(=N)N)cs1 [Compound 64, (2S,4R)—N—((R)-1-(4-carbamimidoylthiophen-2-yl)ethyl)-1-((4-(4-cyclopropylphenoxy)benzoyl)glycyl)-4-(difluoromethoxy)pyrrolidine-2-carboxamide hydrochloride] | < 0.1
C[C@@]12C[C@@H]1N(C(=O)CNC(=O)c1ccc3c(c1)CCCO3)[C@H](C(=O)NCc1cc(C(=N)N)cs1)C2 [Compound 1, (1S,3S,5S)—N-((4-carbamimidoylthiophen-2-yl)methyl)-2-((chromane-6-carbonyl)glycyl)-5-methyl-2-azabicyclo[3.1.0]hexane-3-carboxamide] | < 0.1
C[C@@H](NC(=O)[C@@H]1C[C@](F)(COCCNC(=O)CC[C@H](NC(=O)CCCCCCCCCCCCCCCCC(=O)O)C(=O)O)CN1C(=O)CNC(=O)c1ccc2c(c1)-c1ccccc1C2(F)F)c1cc(C(=N)N)cs1 [Compound 133, 18-(((S)-4-((2-(((3R,5S)-5-(((R)-1-(4-carbamimidoylthiophen-2-yl)ethyl)carbamoyl)-1-((9,9-difluoro-9H-fluorene-3-carbonyl)glycyl)-3-fluoropyrrolidin-3-yl)methoxy)ethyl)amino)-1-carboxy-4-oxobutyl)amino)-18-oxooctadecanoic acid] | < 0.1
C[C@@H](NC(=O)[C@@H]1C[C@@H](OC(F)(F)F)CN1C(=O)CNC(=O)c1ccc2c(c1)-c1ccccc1C2(F)F)c1cc(C(=N)N)cs1 [Compound 159, (2S,4R)—N—((R)-1-(4-carbamimidoylthiophen-2-yl)ethyl)-1-((9,9-difluoro-9H-fluorene-3-carbonyl)glycyl)-4-(trifluoromethoxy)pyrrolidine-2-carboxamide] | < 0.1
C[C@@H](NC(=O)[C@@H]1C[C@@H](OC(F)F)CN1C(=O)CNC(=O)c1ccc(Oc2ccc(C#N)cc2)cc1)c1cc(C(=N)N)cs1 [Compound 49, (2S,4R)—N—((R)-1-(4-carbamimidoylthiophen-2-yl)ethyl)-1-((4-(4-cyanophenoxy)benzoyl)glycyl)-4-(difluoromethoxy)pyrrolidine-2-carboxamide] | < 0.1
COc1ccc2c(c1)C(F)(F)c1ccc(C(=O)NCC(=O)N3CC4(C[C@H]3C(=O)N[C@H](C)c3cc(C(=N)N)cs3)OCCO4)cc1-2 [Compound 191, (S)—N—((R)-1-(4-carbamimidoylthiophen-2-yl)ethyl)-7-((9,9-difluoro-7-methoxy-9H-fluorene-3-carbonyl)glycyl)-1,4-dioxa-7-azaspiro[4.4]nonane-8-carboxamide] | < 0.1

same assay, conditions: Human complement C1s enzyme 1.16 nM, substrate Z-L-Lys-SBzl 100 μM, assay of Example 3; read-out: IC50 (Stars)

Compound | IC50 [µM]
C[C@@H](NC(=O)[C@@H]1CC2(CN1C(=O)CN1Cc3ccc(-c4ccc(F)cc4F)cc3C1=O)OCCO2)c1cc(C(=N)N)cs1 [Compound 346, (S)—N—((R)-1-(4-carbamimidoylthiophen-2-yl)ethyl)-7-(2-(6-(2,4-difluorophenyl)-1-oxoisoindolin-2-yl)acetyl)-1,4-dioxa-7-azaspiro[4.4]nonane-8-carboxamide] | < 0.1
C[C@@H](NC(=O)[C@@H]1C[C@@H](S(C)(=O)=O)CN1C(=O)CNC(=O)c1cccc(-c2ccc(F)cc2)c1)c1cc(C(=N)N)cs1 [Compound 334, (2S,4R)—N—((R)-1-(4-carbamimidoylthiophen-2-yl)ethyl)-1-((4′-fluoro-[1,1′-biphenyl]-3-carbonyl)glycyl)-4-(methylsulfonyl)pyrrolidine-2-carboxamide] | < 0.1
CCS(=O)(=O)[C@@H]1C[C@@H](C(=O)N[C@H](C)c2cc(C(=N)N)cs2)N(C(=O)CNC(=O)c2ccc3c(c2)-c2ccccc2C3(F)F)C1 [Compound 238, (2S,4R)—N—((R)-1-(4-carbamimidoylthiophen-2-yl)ethyl)-1-((9,9-difluoro-9H-fluorene-3-carbonyl)glycyl)-4-(ethylsulfonyl)pyrrolidine-2-carboxamide] | < 0.1
C[C@@H](NC(=O)[C@@H]1CC2(CN1C(=O)CNC(=O)c1ccc3c(c1)-c1ccccc1S3(=O)=O)OCCO2)c1cc(C(=N)N)cs1 [Compound 261, (S)—N—((R)-1-(4-carbamimidoylthiophen-2-yl)ethyl)-7-((5,5-dioxidodibenzo[b,d]thiophene-2-carbonyl)glycyl)-1,4-dioxa-7-azaspiro[4.4]nonane-8-carboxamide] | < 0.1
COC[C@@]1(F)C[C@@H](C(=O)N[C@H](C)c2cc(/C(N)=N\C(=O)OC)cs2)N(C(=O)CNC(=O)c2ccc3c(c2)-c2ccccc2C3(F)F)C1 [Compound 232, methyl ((E)-amino(5-((R)-1-((2S,4R)-1-((9,9-difluoro-9H-fluorene-3-carbonyl)glycyl)-4-fluoro-4-(methoxymethyl)pyrrolidine-2-carboxamido)ethyl)thiophen-3-yl)methylene)carbamate] | < 0.1
CCCCCCOC(=O)/N=C(/N)c1csc([C@@H](C)NC(=O)[C@@H]2C[C@](F)(CF)CN2C(=O)CNC(=O)c2ccc3c(c2)-c2ccccc2C3(F)F)c1 [Compound 253, hexyl ((E)-amino(5-((R)-1-((2S,4R)-1-((9,9-difluoro-9H-fluorene-3-carbonyl)glycyl)-4-fluoro-4-(fluoromethyl)pyrrolidine-2-carboxamido)ethyl)thiophen-3-yl)methylene)carbamate] | < 0.1
C[C@@H](NC(=O)[C@@H]1CC2(CN1C(=O)CNC(=O)c1ccc3c(c1)-c1ccccc1C3(F)F)OCCO2)c1cc(C(N)=O)cs1 [Compound 200, (S)—N—((R)-1-(4-carbamoylthiophen-2-yl)ethyl)-7-((9,9-difluoro-9H-fluorene-3-carbonyl)glycyl)-1,4-dioxa-7-azaspiro[4.4]nonane-8-carboxamide] | > 1
C[C@@H](NC(=O)[C@@H]1CC2(CN1C(=O)Cc1ccc(-c3ccccc3)cc1)OCCO2)c1cc(C(=N)N)cs1 [Compound 338, (S)-7-(2-([1,1′-biphenyl]-4-yl)acetyl)-N—((R)-1-(4-carbamimidoylthiophen-2-yl)ethyl)-1,4-dioxa-7-azaspiro[4.4]nonane-8-carboxamide] | < 0.1
N=C(N)c1csc(CNC(=O)[C@@H]2CC3(CN2C(=O)CN2Cc4cc(-c5ccc(F)cc5F)ccc4C2=O)OCCO3)c1 [Compound 228, (S)—N-((4-carbamimidoylthiophen-2-yl)methyl)-7-(2-(5-(2,4-difluorophenyl)-1-oxoisoindolin-2-yl)acetyl)-1,4-dioxa-7-azaspiro[4.4]nonane-8-carboxamide] | < 0.1
C[C@H](NC(=O)c1ccc(-c2ccc(F)cc2F)cc1)C(=O)N1CC2(C[C@H]1C(=O)NCc1cc(C(=N)N)cs1)OCCO2 [Compound 291, (S)—N-((4-carbamimidoylthiophen-2-yl)methyl)-7-((2′,4′-difluoro-[1,1′-biphenyl]-4-carbonyl)-L-alanyl)-1,4-dioxa-7-azaspiro[4.4]nonane-8-carboxamide] | < 0.1
CC1c2ccccc2-c2ccc(C(=O)NCC(=O)N3C[C@H](OC(F)F)C[C@H]3C(=O)N[C@H](C)c3cc(C(=N)N)cs3)cc21 (stereo partly drawn) [Compound 357, (2S,4R)—N—((R)-1-(4-carbamimidoylthiophen-2-yl)ethyl)-4-(difluoromethoxy)-1-((9-methyl-9H-fluorene-2-carbonyl)glycyl)pyrrolidine-2-carboxamide] | < 0.1
Cc1ccc(-c2ccc(C(=O)NCC(=O)N3CC4(C[C@H]3C(=O)NCc3cc(C(=N)N)cs3)OCCO4)cc2)c(C)c1 [Compound 257, (S)—N-((4-carbamimidoylthiophen-2-yl)methyl)-7-((2′,4′-dimethyl-[1,1′-biphenyl]-4-carbonyl)glycyl)-1,4-dioxa-7-azaspiro[4.4]nonane-8-carboxamide] | < 0.1
C[C@@H](NC(=O)[C@@H]1C[C@]2(COCCN)C[C@@H]2N1C(=O)CNC(=O)c1ccc2c(c1)-c1ccccc1C2(F)F)c1cc(C(=N)N)cs1 [Compound 313, (1S,3S,5R)-5-((2-aminoethoxy)methyl)-N—((R)-1-(4-carbamimidoylthiophen-2-yl)ethyl)-2-((9,9-difluoro-9H-fluorene-3-carbonyl)glycyl)-2-azabicyclo[3.1.0]hexane-3-carboxamide] | < 0.1

same assay, conditions: Human complement C1s enzyme 1.16 nM, substrate Z-L-Lys-SBzl; assay of Example 3; read-out: IC50 (Stars)

Compound | IC50 [µM]
C[C@@H](NC(=O)[C@@H]1CC(c2ncco2)CN1C(=O)CNC(=O)c1ccc2c(c1)-c1ccccc1C2(F)F)c1cc(C(=N)N)cs1 (stereo partly drawn) [Compound 416, (S)—N—((R)-1-(4-carbamimidoylthiophen-2-yl)ethyl)-1-((9,9-difluoro-9H-fluorene-3-carbonyl)glycyl)-4-(oxazol-2-yl)pyrrolidine-2-carboxamide] | < 0.1
N=C(N)c1c[nH]c(CNC(=O)[C@@H]2CC3(CN2C(=O)CNC(=O)c2ccc4c(c2)-c2ccccc2C4(F)F)OCCO3)c1 [Compound 423, (S)-N-((4-carbamimidoyl-1H-pyrrol-2-yl)methyl)-7-((9,9-difluoro-9H-fluorene-3-carbonyl)glycyl)-1,4-dioxa-7-azaspiro[4.4]nonane-8-carboxamide] | < 0.1
